Measurements published in patent US12533323B2, “Slow-release formulation” (GLYCOSCIENCE, S.L., priority 2021, dated 2026).

Assay: Dissolution of trans-PMD glucovanillin conjugate in water
Format: physicochemical
Conditions: solid 50 mg in water 0.1 ml
From the text: The resultant solution was cooled to room temperature and purified by chromatography over silica by gradient elution using 1:1 EtOAc/hexane to remove residual diol followed by 1:10 MeOH/dichloromethane to afford the title compound as an odourless white solid (0.73 g, 74%).

COc1cc(C2O[C@H]3C[C@@H](C)CCC3C(C)(C)O2)ccc1O[C@@H]1O[C@H](CO)[C@@H](O)[C@H](O)[C@H]1O (mixture of isomers) [Example 2, Racemic trans-PMD Glucovanillin Conjugate]
dissolution in water: readily dissolve
